# In PMC7261837, “Circumdatin D Exerts Neuroprotective Effects by Attenuating LPS-Induced Pro-Inflammatory Responses and Downregulating Acetylcholinesterase Activity In Vitro and In Vivo” (Frontiers in Pharmacology, 2020):
# Tests used:
# NF-κB = NF-κB luciferase reporter assay; assay type: cell-based; conditions: Homo sapiens; SW480 cells stably transfected with NF-κB luciferase reporter gene, induced by LPS; mean ± SD (n = 3); read-out: NF-κB Activation IC50
# Experimental: SW480-NF-κB cells were seeded at a density of 5 × 10^4 cells/well in 24-well plates and incubated with circumdatins with or without LPS stimulation for 6 h. The κB-dependent luciferase reporter activity in cell extracts was monitored using an automated microplate reader.
# BV-2 cells [1] = assay: MTT cytotoxicity / cell survivability in BV-2 cells; assay type: cell-based, murine; conditions: 1 μg/ml LPS, doses 0–100 μM, 48 h
# Experimental: In vitro cytotoxicity was detected using the MTT assay. Cells were treated with different concentrations of circumdatins in the presence or absence of LPS for 48 h. Then, MTT reagent was added to each well and the plates were further incubated at 37°C for 4 h. The absorbance was read at 570 nm using a microplate spectrophotometer (Thermo Scientifics, USA).
# Cell surviability was detected using the MTT assay. Cells were seeded in 96-well plates and incubated overnight, following which the cells were treated with different concentrations of circumdatins with or without 1µg/mL of LPS for indicated time. Then, the cells were subsequently cultured with MTT and incubated for 4 hours at 37°C. Thereafter, the purple formazan dye was dissolved in DMSO and the absorbance was measured at 570 nm.
# BV-2 cells [2] = assay: RT-PCR of TNF-α, IL-1β, iNOS and COX-2 mRNA in LPS-induced BV-2 cells; assay type: cell-based, murine; conditions: 1 μg/ml LPS, 10, 20, 50 μM, 24 h
# Experimental: Total RNA was extracted using TRIzol reagent (Life Technologies, NY) and then reverse-transcribed into cDNA by reverse transcriptase (Invitrogen). mRNA expression of target genes iNOS, COX-2, IL-1β and TNF-α was quantified in comparison to housekeeping gene GAPDH using SYBR green detection method on ABI 7500 system (Applied Biosystems). The relative gene expression was calculated using comparative Ct (ΔΔCt) method. The following primers in Table 1 were used in this study.
# primary microglia cells = assay: NO, TNF-α and IL-1β production in LPS-induced primary microglia; assay type: cell-based, Sprague Dawley rats; conditions: 1.0 μg/ml LPS, 10, 20, 50 μM
# Experimental: Primary microglia were prepared from the cortical tissue of neonatal (1–3 d) Sprague Dawley rats as [Ni and Aschner (2010)] described and primary cortical neurons were isolated from embryos of pregnant Sprague Dawley rats of E-18 ([Zeng et al., 2012]). All experimental manipulations with the animals was reviewed and approved by the animal experimental ethics committee of Peking University. The animals used in the work were performed in accordance with the Animal Care and Use Guidelines of Peking University.
# The NO levels in culture media was determined using a Griess method. Cells were treated with different concentrations of circumdatins in the presence or absence of LPS for 24 h. After that, the supernatant fraction of the culture media was collected and mixed with the same volume of Griess reagent (1% sulfanilamide/0.1% naphthyl ethylene diamine dihydrochloride/2% H3PO4). Then, the absorbance was measured at 540 nm using a microplate spectrophotometer (Thermo Scientifics, USA). The concentration of nitrite was calculated from a calibration curve obtained from standards sodium nitrite solutions.
# Cells were treated with different concentrations of circumdatin D in the presence or absence of LPS for indicated time. […] The levels of TNF-α and IL-β in the supernatants were determined by ELISA kits according to the manufacturer's instructions.
# C. elegans CL4176 [3] = assay: Paralysis assay in transgenic C. elegans CL4176; assay type: in vivo, Caenorhabditis elegans; conditions: 36 h after temperature upshift 16 to 25°C
# Experimental: The in vivo effects of circumdatin D on pro-inflammatory response and AChE activity were evaluated using C. elegans as animal model. Transgenic C. elegans CL4176 and E. coli OP50 were bought from the Caenorhabditis Genetics Center (University of Minnesota, Minneapolis, MN, USA). CL4176 strain become paralysis after up-shifting temperature from 16 to 25°C due to expressing human β-amyloid peptide in muscle cells. The nematodes were cultivated on nematode growth medium (NGM) plates (1.7% Agar, 0.3% NaCl, 0.25% peptone, 1 mM CaCl2, 1 mM MgSO4, 5 mg/L cholesterol, and 2.5 mM K2HPO4) with E. coli OP50 at 16°C. In paralysis assay, egg-synchronized CL4176 nematodes were incubated on solid NGM plates with E. coli OP50 at 16°C. When the age of the worms grew to L4 stage, nematodes were divided into four groups and exposed to appropriate concentrations of circumdatin D or vehicle control (0.4% DMSO) at 16 °C for 36 h. The temperature was then raised from 16 to 25°C, the number of paralyzed worms was counted under the microscope. The paralyzed worms were recognized for those with no response or only moved head when gently touched with a platinum wire. Each independent assay included three NGM plates with 30 worms for each one. Likewise, the AChE activity and RT-PCR assay was employed using similar conditions.
# In paralysis assay, CL4176 worms were egg-synchronized onto fresh NGM plates containing OP50 bacteria at 16℃. To induce the transgene expression, the temperature raised from 16 to 25℃ and lasted until the end of the paralysis assay. The recording was performed at two hours interval typically after 24h at 25 °C until the majority of worm became paralyzed. The worms were considered as paralyzed if there was no response or they only moved their head when gently touched with a platinum wire. Each independent assay included three NGM plates with twenty worms in each one.
# C. elegans CL4176 [4] = assay: Nematode toxicity assay; assay type: in vivo, Caenorhabditis elegans; conditions: 24 and 48 h, tested dose, Figure S19
# Experimental: To eliminate the confounding factor of toxicity in the procedure, CL4176 worms were exposed to increasing concentrations of circumdatin D dissolved in NGM (0, 100, 200, 500 µM) for 24 h and 48h at 16 °C, respectively. Further, nematodes were exposed to 0.4% DMSO as the negative control. The animals were scored as live or death using a Motic dissecting microscope (Motic Inc., LTD., Hong Kong, China). The worms were considered as death if there was no response when gently touched with a platinum wire. Each independent assay included three NGM plates with thirty worms in each one. Toxicity was expressed as a total percentage of worm survival.
# TLR4 and MyD88 = assay: Western blot of TLR4 and MyD88 in LPS-induced BV-2 cells; assay type: cell-based, murine; conditions: 1 μg/ml LPS, 10, 20, 50 μM, 6 h
# Experimental: Total cell proteins were lysed using cell extraction buffer containing phenylmethylsulfonyl ﬂuoride and protease inhibitor cocktail. The cytosolic and nuclear extracts were collected using the Nuclear and Cytosolic extraction kit. The protein extracts were separated on SDS-PAGE and transferred to PVDF membranes (Millipore). The membrane was blocked with 5% nonfat milk for 1 h at room temperature, and incubated with indicated primary antibodies overnight at 4°C. After washing, the membrane was incubated with secondary antibodies conjugated to horseradish peroxidase (Proteintech, USA) at room temperature for 1 h. Then, the proteins of interest were visualized utilizing a chemiluminescence (ECL) detection system. The relative optical densities were analyzed using the Image Master™ 2D Elite software.
compound,measurement,setting,value
COc1ccc2c(c1)C(=O)N1CCC[C@H]1c1nc3ccc(OC)cc3c(=O)n1-2 [circumdatin D],IC50,NF-κB,8.7 ± 1.3 µM
same,cytotoxicity in the presence of LPS (MTT),BV-2 cells [1],did not induce significant cellular death
same,iNOS and COX-2 mRNA expression levels (q-PCR),BV-2 cells [2],dose-dependently decreasing the expression levels of both iNOS and COX-2
same,proinflammatory cytokines mRNA levels,BV-2 cells [2],significantly decreased proinflammatory cytokines
same,"LPS-stimulated production of NO, TNF-α and IL-1β",primary microglia cells,"significantly decreased the production of NO, TNF-α and IL-1β"
same,reduction of paralysis,"C. elegans CL4176 [3]; CL4176, 50 μM",about 24.9%
same,reduction of paralysis,"C. elegans CL4176 [3]; CL4176, 100 μM",~42.8%
same,reduction of paralysis,"C. elegans CL4176 [3]; CL4176, 200 μM",~74.8%
same,toxicity on CL4176 nematodes (survival),C. elegans CL4176 [4],no toxicity on the normal survival of the nematode
same,LPS-induced TLR4 expression,TLR4 and MyD88,dramatically reversed the LPS-induced TLR4 expression
same,MyD88 expression,TLR4 and MyD88,suppressed the MyD88 expression
